According to US5440041A, “Acetal or ketal substituted xanthine compounds” (Cell Therapeutics, Inc., priority 1994, dated 1995):
Read-outs that look alike come from different tables or passages of the source.

Tests used:
[1] = tested on: PBMC (peripheral blood mononuclear cells); experiment: Two-way mixed lymphocyte reaction (MLR); type: cell-based, human; conditions: FIG. 1, FIG. 8
From the text: Various in vitro assays can be used to measure effects of the inventive compounds to modulate immune activity and have antitumor activity using a variety of cellular types. For example, a mixed lymphocyte reaction (MLR) provides a valuable screening tool to determine biological activity of each inventive compound. In the MLR, PBMCs (peripheral blood mononuclear cells) are obtained by drawing whole blood from healthy volunteers in a heparinized container and diluted with an equal volume of hanks balanced salt solution (HBSS). This mixture is layered on a sucrose density gradient, such as a Ficoll-Hypaque® gradient (specific gravity 1.08), and centrifuged at 1000×g for 25 minutes at room temperature or cooler. PBMC are obtained from a band at a plasma-Ficoll interface, separated and washed at least twice in a saline solution, such as HBSS. Contaminating red cells are lysed, such as by ACK lysis for 10 min at 37° C., and the PBMCs are washed twice in HBSS. The pellet of purified PBMCs is resuspended in complete medium, such as RPMI 1640 plus 20% human inactivated serum. Proliferative response of PBMC to allogeneic stimulation is determined in a two-way MLR performed in a 96-well microtiter plate. […] At the conclusion of the incubation tritiated thymidine is added (for example, 1 μCi/well of 40 to 60 Ci/mmole) and proliferation determined by liquid scintillation counting. […]

thymocyte [2] = experiment: Thymocyte proliferation stimulated by ConA and IL-1α; type: cell-based, mice (Balb/C); conditions: drug added two hours prior to activation; FIG. 2
Method: (§1) A thymocyte costimulator assay is conducted to evaluate the inventive compounds to inhibit activation and proliferation of thymocytes caused by stimulation with Con A and interleukin-1 (IL-1), or interleukin-2 (IL-2). Thymuses are obtained from mice (e.g., female Balb/C mice) and the thymuses are removed and dissociated into culture media (e.g., RPMI 1640 without serum supplementation). The dissociated thymus tissue and cell suspension is transferred to centrifuge tubes and allowed to settle, washed with HBSS and resuspended in serum-supplemented culture media (e.g., RPMI 1640 with 10% fetal calf serum). Any contaminating red cells are lysed, and viable cells are resuspended and counted. Thymocytes are plated (e.g., 96-well plates at a density of 2×10^5 cells/well) and a stimulating agent, such as Con A, IL-1 (e.g., IL-1α) or IL-2 is added to the well. The cells are incubated for 4 days at 37° C. On the fourth day, the cells are pulsed with tritiated thymidine and cell proliferation determined. […]
(§2) Thymuses were obtained from normal, female Balb/C mice, dissociated, and plated into 96-well plates at a density of 2×10^5 cells/well. ConA and IL-1α were added to the wells and the cells were incubated for 4 days at 37° C. […] The cells were harvested and incorporated tritiated thymidine was determined in a liquid scintillation counter. […]

thymocyte [3] = experiment: Thymocyte proliferation stimulated by ConA and IL-2; type: cell-based, mice (Balb/C); conditions: drug added two hours prior to activation; FIG. 3
Method: as §1, §2

VCAM = experiment: Cell surface expression of VCAM in TNF-α-stimulated HUVEC (flow cytometry); type: cell-based, human; conditions: TNF-α (20 ng/ml) for 20 hrs; mean fluorescence intensity; FIG. 6
Method: Drug inhibitory activity can also be measured by determining levels of vascular cell adhesion molecule (VCAM) in stimulated cells. Early passage human umbilical vein endothelial cells (HUVEC) (obtained from commercial suppliers such as Cell Systems, Inc. or Clonetics) are cultured in media (e.g., Hepes buffered media, Cell Systems) containing 10% fetal bovine serum, and supplemented with a stimulating agent, such as fibroblast growth factor (acidic FGF, Cell Systems, Inc.) or TNF. The cells are plated into wells of a microliter plate (e.g., 5×10^4 per well) and allowed to incubate at 37° C. for 72 hrs. […] After 30 min on ice, the cells are washed twice and analyzed on a flow cytometer (Coulter Elite®) at appropriate emission and excitation wavelengths (e.g., for phycoerythrin use excitation at 488 nm and emission at […]).
The cells were stimulated with TNF-α(20 ng/ml) for 20 hrs and then stained for immunofluorescence using a monoclonal antibody recognizing VCAM, followed by a goat anti-mouse antibody conjugated to phycoerythrin. The cells were analyzed for antibody binding using flow cytometry.

human stromal cells = experiment: Stromal cell proliferation stimulated by PDGF; type: cell-based; conditions: for IC50: Homo sapiens; for inhibition of proliferation of human stromal cells stimulated with PDGF: in words
Method: Another assay for measuring activity of the inventive compounds involves determining PDGF (platelet derived growth factor) proliferative response using human-derived stromal cells. […] Two to three days later, the stromal cells are starved in serum-free media. Twenty four hours later, the cells are treated with a stimulating agent, such as PDGF-AA, PDGF-BB or basic FGF (fibroblast growth factor) with or without IL-1α or TNF, and tritiated thymidine. Cell proliferation is determined by liquid scintillation counting.
This assay is a model for restenosis and treatment of atherosclerosis and coronary artery disease. Stromal cells were starved in serum-free media for 24 hrs and then stimulated with PDGF-BB (50 ng/ml). The drugs were added at various concentrations one hour prior to PDGF stimulation. Tritiated thymidine was added for 24 hrs at the time of PDGF stimulation and proliferation determined by harvesting and counting the cells by liquid scintillation 24 hrs later.

[4] = tested on: adhesion of U937 cells to activated human umbilical vein endothelial cells (HUVEC); experiment: Adhesion of U937 cells to TNF-activated HUVEC; type: cell-based; conditions: HUVEC activated with 20 ng/ml human TNF for 12 hours; drug one hour prior to TNF; FIG. 5
Method: Another assay measures the effects of drug to inhibit adhesion of U937 cells to TNF-activated HUVEC cells In this experiment, HUVEC cells are induced with human TNF-α (20 ng/ml) and drug at varying concentrations for 14-16 hrs. U937 cells (a human monocyte cell line) are incubated and labeled with BCECF (10 μg/ml), a fluorescent dye. The U937 cell preparation (2.5×10^4 cells per well) is layered on top of the activated HUVEC cells. The cells are reverse spun to remove partially adhering and nonadhering U937 cell. The adherent U937 cells are measured by fluorescence on a fluorescent plate reader.
This example illustrates the effect of CT1573 to inhibit adhesion of U937 cells to activated human umbilical vein endothelial cells (HUVEC). HUVEC cells (4000/well, seeded 72 hrs in advance) were activated with 20 ng/ml of human TNF for 12 hours. CT1573 was added to the samples one hour prior to adding TNF. U937 cells were preloaded with a fluorescent dye (BCECF) were added to the HUVEC cells in each well for 30 min, the cells washed twice with PBS and adhesion measured after washing. Adhesion was measured on a fluorescence plate reader. Background adhesion of U937 cells to non-activated HUVEC is shown as a dashed line.

293-EBNA cells = experiment: Reporter gene expression (CMV promoter, secreted placental alkaline phosphatase) in tumor cells; type: cell-based; conditions: compared with CT1501R, CT1567 and CT1590; absorbance at 405 nm; FIG. 7
From the text: FIG. 7 illustrates the effects of CT1590 (racemate N-(5,6-[…]) theobromine), CT1573, CT1567 and CT1501R (an alcohol-substituted xanthine) on cell proliferation as a measure of antitumor activity and the ability of each drug to inhibit gene expression in tumor cells. A specific plasmid construct employing a human CMV (cytomegalovirus) promoter directs the expression of a reporter gene (secreted human placental alkaline phosphatase) that was transformed into the tumor cell line 293-EBNA cells. The cells were treated with various concentrations of drug. Antitumor activity was measured in culture supernatants by expression of alkaline phasphatase reporter gene by absorbance at 405 nm of cell conditioned medium in the presence of substrate (e.g., ortho-nitrophenol phosphate) as described in Berger et al. (Gene 66:1-10, 1988).
This example illustrates the effects of CT1590 (racemate N-(5,6-ethylenedioxyhexyl) theobromine), CT1573, CT1567 and CT1501R (an alcohol-substituted xanthine) on cell proliferation as a measure of antitumor activity and the ability of each drug to inhibit gene expression in tumor cells. A specific plasmid construct employing a human CMV (cytomegalovirus) promoter directs the expression of a reporter gene (secreted human placental alkaline phosphatase) that was transformed into the tumor cell line 293-EBNA cells. […]

[5] = tested on: polymorphonuclear leukocytes; conditions: in response to a stimulator of chemotaxis; U.S. Pat. No. 4,636,507; cited from earlier work
[6] = U.S. Pat. Nos. 4,515,795 and 4,576,947; cited from earlier work
[7] = PDGF BB and IL-1α, FIG. 4, FIG. 9, read-out: IC50 to inhibit stromal cell proliferation stimulated by PDGF BB and IL-1α

SMILES | activity in mixed lymphocyte reaction (proliferative response of PBMC to allogeneic stimulation) [1] | inhibition of cell surface expression of VCAM in HUVEC cells (VCAM) | IC50 (human stromal cells; [7]) [µM] | inhibition of proliferation of human stromal cells stimulated with PDGF (human stromal cells) | also measured
Cn1cnc2c1c(=O)n(CCCCCC1OCCO1)c(=O)n2C [CT1567] | showed activity | inhibit cell surface expression of VCAM | – | – | inhibition of thymocyte proliferation stimulated by ConA and IL-1α (thymocyte [2]): inhibited thymocyte proliferation in a dose-response manner; inhibition of thymocyte proliferation stimulated by ConA and IL-2 (thymocyte [3]): inhibited thymocyte proliferation at the highest dose tested
Cn1cnc2c1c(=O)n(CCCCCCCCC1COCO1)c(=O)n2C (racemic) [CT1573, N-(9,10-methylenedioxydecyl)-3,7-dimethylxanthine] | – | inhibit cell surface expression of VCAM | < 100 | strongly inhibit proliferation | IC50 (human stromal cells; 1 h, PDGF-BB (50 ng/ml), drug one hour prior to stimulation, FIG. 4, read-out: IC50 to inhibit stromal cell proliferation stimulated by PDGF BB): < 100 µM; inhibition of adhesion of U937 cells to activated HUVEC [4]: reduced adhesion in a dose-dependent manner; inhibition of gene expression in tumor cells (antitumor activity) (293-EBNA cells): strongly inhibited gene expression
Cn1cnc2c1c(=O)n(CCCCC1COCO1)c(=O)n2C (racemic) [CT1590, N-(5,6-methylenedioxyhexyl)-3,7-dimethylxanthine] | showed activity | – | ~100 | strongly inhibit proliferation | –
CC(O)CCCCn1c(=O)c2c(ncn2C)n(C)c1=O (stereo not drawn) [M1, 1-(5-hydroxyhexyl)-3,7-dimethylxanthine] | – | – | – | – | effect on chemotaxis in polymorphonuclear leukocytes [5]: stimulate chemotaxis; effect on cerebral blood flow [6]: increasing cerebral blood flow
